We go through 13 molecules from ChEMBL document CHEMBL3865783, “Synthesis and antimicrobial activity against Pseudomonas aeruginosa of macrocyclic β-hairpin peptidomimetic antibiotics containing N-methylated amino acids” (Bioorg Med Chem, 2016).

One assay has as its system Pseudomonas aeruginosa. As to the kind of experiment: Inhibition of LptD in Pseudomonas aeruginosa ATCC 27853 assessed as microbial growth inhibition by microbroth dilution method.
The target of assay [1] is T1, LPS-assembly protein LptD (Pseudomonas aeruginosa (strain ATCC 15692 / DSM 22644 / CIP 104116 /JCM 14847 / LMG 12228 / 1C / PRS 101 / PAO1)) (UniProt Q9I5U2).
T1 sequence (whole entry): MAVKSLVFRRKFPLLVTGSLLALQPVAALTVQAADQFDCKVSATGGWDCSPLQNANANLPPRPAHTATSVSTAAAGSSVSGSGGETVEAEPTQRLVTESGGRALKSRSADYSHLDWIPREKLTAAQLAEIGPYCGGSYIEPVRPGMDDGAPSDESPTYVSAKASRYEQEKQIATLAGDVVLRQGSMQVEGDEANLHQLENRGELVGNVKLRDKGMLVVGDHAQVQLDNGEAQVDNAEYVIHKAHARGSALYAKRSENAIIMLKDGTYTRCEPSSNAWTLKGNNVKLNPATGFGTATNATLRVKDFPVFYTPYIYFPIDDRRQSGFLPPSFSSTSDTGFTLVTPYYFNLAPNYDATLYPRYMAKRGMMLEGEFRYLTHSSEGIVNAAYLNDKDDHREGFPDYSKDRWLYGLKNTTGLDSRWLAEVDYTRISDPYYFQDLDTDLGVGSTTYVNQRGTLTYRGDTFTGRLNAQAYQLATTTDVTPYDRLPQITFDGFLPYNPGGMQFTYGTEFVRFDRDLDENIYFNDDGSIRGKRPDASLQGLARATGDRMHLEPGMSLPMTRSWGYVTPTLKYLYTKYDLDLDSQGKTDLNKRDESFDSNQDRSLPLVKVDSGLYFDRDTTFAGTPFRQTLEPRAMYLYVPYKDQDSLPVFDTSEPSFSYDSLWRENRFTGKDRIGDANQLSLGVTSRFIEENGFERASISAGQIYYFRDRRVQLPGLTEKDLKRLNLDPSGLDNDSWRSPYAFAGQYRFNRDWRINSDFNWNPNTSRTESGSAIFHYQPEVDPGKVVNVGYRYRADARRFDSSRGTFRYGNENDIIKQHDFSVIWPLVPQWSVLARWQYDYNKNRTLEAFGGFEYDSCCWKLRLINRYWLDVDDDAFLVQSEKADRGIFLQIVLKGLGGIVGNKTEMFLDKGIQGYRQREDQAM
As to the kind of experiment: Inhibition of LptD in Pseudomonas aeruginosa PAO1 assessed as microbial growth inhibition by microbroth dilution method.

For the molecule `CC(C)C[C@@H]1NC(=O)[C@H](Cc2c[nH]c3ccccc23)NC(=O)[C@H]([C@@H](C)O)NC(=O)[C@@H]2CCCN2C(=O)[C@H]2CCCN2C(=O)[C@H](CCCCN)NC(=O)[C@H](C)NC(=O)[C@H](CCN)NC(=O)[C@H](CCCN)NC(=O)[C@H](Cc2c[nH]c3ccccc23)NC(=O)[C@H](CCCNC(=N)N)NC(=O)[C@@H](CCCCN)NC(=O)[C@H](CCCN)NC(=O)[C@H](CCN)NC1=O`, the MIC is 0.008 µg/mL with Pseudomonas aeruginosa and 0.015 µg/mL in assay [1].

With `CC(C)C[C@@H]1NC(=O)[C@H](Cc2c[nH]c3ccccc23)NC(=O)[C@H]([C@@H](C)O)N(C)C(=O)[C@@H]2CCCN2C(=O)[C@H]2CCCN2C(=O)[C@H](CCCCN)NC(=O)[C@H](C)NC(=O)[C@H](CCN)NC(=O)[C@H](CCCN)NC(=O)[C@H](Cc2c[nH]c3ccccc23)NC(=O)[C@H](CCCNC(=N)N)NC(=O)[C@@H](CCCCN)NC(=O)[C@H](CCCN)NC(=O)[C@H](CCN)NC1=O`, the MIC in the assay with Pseudomonas aeruginosa was 0.19 µg/mL; in assay [1] it was 0.38 µg/mL.

Regarding `CC(C)C[C@@H]1NC(=O)[C@H](Cc2c[nH]c3ccccc23)NC(=O)[C@H]([C@@H](C)O)NC(=O)[C@@H]2CCCN2C(=O)[C@H]2CCCN2C(=O)[C@H](CCCCN)NC(=O)[C@H](C)NC(=O)[C@H](CCN)NC(=O)[C@H](CCCN)NC(=O)[C@H](Cc2c[nH]c3ccccc23)NC(=O)[C@H](CCCNC(=N)N)N(C)C(=O)[C@@H](CCCCN)NC(=O)[C@H](CCCN)NC(=O)[C@H](CCN)NC1=O`, the MIC was determined as 0.38 µg/mL in the assay with Pseudomonas aeruginosa and 0.75 µg/mL in assay [1].

On to `CC(C)C[C@@H]1NC(=O)[C@H](Cc2c[nH]c3ccccc23)NC(=O)[C@H]([C@@H](C)O)NC(=O)[C@@H]2CCCN2C(=O)[C@H]2CCCN2C(=O)[C@H](CCCCN)NC(=O)[C@H](C)NC(=O)[C@H](CCN)NC(=O)[C@H](CCCN)NC(=O)[C@H](Cc2c[nH]c3ccccc23)N(C)C(=O)[C@H](CCCNC(=N)N)NC(=O)[C@@H](CCCCN)NC(=O)[C@H](CCCN)NC(=O)[C@H](CCN)NC1=O`, for which the MIC was 0.023 µg/mL with Pseudomonas aeruginosa and 0.13 µg/mL in assay [1].

On to `CC(C)C[C@@H]1NC(=O)[C@H](Cc2c[nH]c3ccccc23)NC(=O)[C@H]([C@@H](C)O)NC(=O)[C@@H]2CCCN2C(=O)[C@H]2CCCN2C(=O)[C@H](CCCCN)NC(=O)[C@H](C)NC(=O)[C@H](CCN)NC(=O)[C@H](CCCN)NC(=O)[C@H](Cc2c[nH]c3ccccc23)NC(=O)[C@H](CCCNC(=N)N)NC(=O)[C@@H](CCCCN)NC(=O)[C@H](CCCN)NC(=O)[C@H](CCN)N(C)C1=O`, for which the values for the MIC (in the assay with Pseudomonas aeruginosa; in assay [1]) were 0.005 µg/mL and 0.009 µg/mL, respectively.

As for `CC(C)C[C@@H]1NC(=O)[C@H](Cc2c[nH]c3ccccc23)NC(=O)[C@H]([C@@H](C)O)NC(=O)[C@@H]2CCCN2C(=O)[C@H]2CCCN2C(=O)[C@H](CCCCN)NC(=O)[C@H](C)NC(=O)[C@H](CCN)NC(=O)[C@H](CCCN)NC(=O)[C@H](Cc2c[nH]c3ccccc23)NC(=O)[C@H](CCCNC(=N)N)NC(=O)[C@@H](CCCCN)NC(=O)[C@H](CCCN)N(C)C(=O)[C@H](CCN)NC1=O`, the MIC with Pseudomonas aeruginosa is 0.009 µg/mL; in assay [1], 0.008 µg/mL.

Take `CC(C)C[C@@H]1NC(=O)[C@H](Cc2c[nH]c3ccccc23)N(C)C(=O)[C@H]([C@@H](C)O)NC(=O)[C@@H]2CCCN2C(=O)[C@H]2CCCN2C(=O)[C@H](CCCCN)NC(=O)[C@H](C)NC(=O)[C@H](CCN)NC(=O)[C@H](CCCN)NC(=O)[C@H](Cc2c[nH]c3ccccc23)NC(=O)[C@H](CCCNC(=N)N)NC(=O)[C@@H](CCCCN)NC(=O)[C@H](CCCN)NC(=O)[C@H](CCN)NC1=O`: the MIC (with Pseudomonas aeruginosa; in assay [1]) was greater than 64 µg/mL in each case.

In the case of `CC(C)C[C@@H]1NC(=O)[C@H](Cc2c[nH]c3ccccc23)NC(=O)[C@H]([C@@H](C)O)NC(=O)[C@@H]2CCCN2C(=O)[C@H]2CCCN2C(=O)[C@H](CCCCN)NC(=O)[C@H](C)NC(=O)[C@H](CCN)NC(=O)[C@H](CCCN)N(C)C(=O)[C@H](Cc2c[nH]c3ccccc23)NC(=O)[C@H](CCCNC(=N)N)NC(=O)[C@@H](CCCCN)NC(=O)[C@H](CCCN)NC(=O)[C@H](CCN)NC1=O`, the MIC in the assay with Pseudomonas aeruginosa was found to be 12 µg/mL; in assay [1], 16 µg/mL.

For `CC(C)C[C@@H]1NC(=O)[C@H](Cc2c[nH]c3ccccc23)NC(=O)[C@H]([C@@H](C)O)NC(=O)[C@@H]2CCCN2C(=O)[C@H]2CCCN2C(=O)[C@H](CCCCN)N(C)C(=O)[C@H](C)NC(=O)[C@H](CCN)NC(=O)[C@H](CCCN)NC(=O)[C@H](Cc2c[nH]c3ccccc23)NC(=O)[C@H](CCCNC(=N)N)NC(=O)[C@@H](CCCCN)NC(=O)[C@H](CCCN)NC(=O)[C@H](CCN)NC1=O`, the MIC (with Pseudomonas aeruginosa; in assay [1]) was greater than 64 µg/mL in each case.

Regarding `CC(C)C[C@H]1C(=O)N[C@@H](CCN)C(=O)N[C@@H](CCCN)C(=O)N[C@H](CCCCN)C(=O)N[C@@H](CCCNC(=N)N)C(=O)N[C@@H](Cc2c[nH]c3ccccc23)C(=O)N[C@@H](CCCN)C(=O)N[C@@H](CCN)C(=O)N[C@@H](C)C(=O)N[C@@H](CCCCN)C(=O)N2CCC[C@@H]2C(=O)N2CCC[C@H]2C(=O)N[C@@H]([C@@H](C)O)C(=O)N[C@@H](Cc2c[nH]c3ccccc23)C(=O)N1C`, the MIC (in the assay with Pseudomonas aeruginosa; in assay [1]) was greater than 64 µg/mL each time.

As to `CC(C)C[C@@H]1NC(=O)[C@H](Cc2c[nH]c3ccccc23)NC(=O)[C@H]([C@@H](C)O)NC(=O)[C@@H]2CCCN2C(=O)[C@H]2CCCN2C(=O)[C@H](CCCCN)NC(=O)[C@H](C)NC(=O)[C@H](CCN)NC(=O)[C@H](CCCN)NC(=O)[C@H](Cc2c[nH]c3ccccc23)NC(=O)[C@H](CCCNC(=N)N)NC(=O)[C@@H](CCCCN)N(C)C(=O)[C@H](CCCN)NC(=O)[C@H](CCN)NC1=O`, the MIC in the assay on Pseudomonas aeruginosa amounted to 0.012 µg/mL; in assay [1] it was 0.025 µg/mL.

As to `CC(C)C[C@@H]1NC(=O)[C@H](Cc2c[nH]c3ccccc23)NC(=O)[C@H]([C@@H](C)O)NC(=O)[C@@H]2CCCN2C(=O)[C@H]2CCCN2C(=O)[C@H](CCCCN)NC(=O)[C@H](C)NC(=O)[C@H](CCN)N(C)C(=O)[C@H](CCCN)NC(=O)[C@H](Cc2c[nH]c3ccccc23)NC(=O)[C@H](CCCNC(=N)N)NC(=O)[C@@H](CCCCN)NC(=O)[C@H](CCCN)NC(=O)[C@H](CCN)NC1=O`, the results for the MIC (in the assay on Pseudomonas aeruginosa; in assay [1]) were 1 µg/mL and 12 µg/mL, respectively.

With `CC(C)C[C@@H]1NC(=O)[C@H](Cc2c[nH]c3ccccc23)NC(=O)[C@H]([C@@H](C)O)NC(=O)[C@@H]2CCCN2C(=O)[C@H]2CCCN2C(=O)[C@H](CCCCN)NC(=O)[C@H](C)N(C)C(=O)[C@H](CCN)NC(=O)[C@H](CCCN)NC(=O)[C@H](Cc2c[nH]c3ccccc23)NC(=O)[C@H](CCCNC(=N)N)NC(=O)[C@@H](CCCCN)NC(=O)[C@H](CCCN)NC(=O)[C@H](CCN)NC1=O`, the MIC (with Pseudomonas aeruginosa; in assay [1]) was greater than 64 µg/mL throughout.
